Results on 5 compounds are retold here after paper PMC6982741, “Design, Synthesis and Study of Nitrogen Monoxide Donors as Potent Hypolipidaemic and Anti-Inflammatory Agents” (Molecules, 2019).

Broadly, the IC50 is the concentration that inhibits the measured activity by half. A word on the melting point: it is the temperature of the solid-liquid transition.

Where two headings read alike, the source gives them in different places. Marks after values point to notes of the source that are not given here. A value given as a limit tells only on which side of the number the result lay.

One series deals with T1, soybean lipoxygenase 1-B (Glycine max, UniProt P08170).
T1 construct: purchased Sigma (St. Louis, MO, U.S.A.)
T1 sequence (P08170 1-839): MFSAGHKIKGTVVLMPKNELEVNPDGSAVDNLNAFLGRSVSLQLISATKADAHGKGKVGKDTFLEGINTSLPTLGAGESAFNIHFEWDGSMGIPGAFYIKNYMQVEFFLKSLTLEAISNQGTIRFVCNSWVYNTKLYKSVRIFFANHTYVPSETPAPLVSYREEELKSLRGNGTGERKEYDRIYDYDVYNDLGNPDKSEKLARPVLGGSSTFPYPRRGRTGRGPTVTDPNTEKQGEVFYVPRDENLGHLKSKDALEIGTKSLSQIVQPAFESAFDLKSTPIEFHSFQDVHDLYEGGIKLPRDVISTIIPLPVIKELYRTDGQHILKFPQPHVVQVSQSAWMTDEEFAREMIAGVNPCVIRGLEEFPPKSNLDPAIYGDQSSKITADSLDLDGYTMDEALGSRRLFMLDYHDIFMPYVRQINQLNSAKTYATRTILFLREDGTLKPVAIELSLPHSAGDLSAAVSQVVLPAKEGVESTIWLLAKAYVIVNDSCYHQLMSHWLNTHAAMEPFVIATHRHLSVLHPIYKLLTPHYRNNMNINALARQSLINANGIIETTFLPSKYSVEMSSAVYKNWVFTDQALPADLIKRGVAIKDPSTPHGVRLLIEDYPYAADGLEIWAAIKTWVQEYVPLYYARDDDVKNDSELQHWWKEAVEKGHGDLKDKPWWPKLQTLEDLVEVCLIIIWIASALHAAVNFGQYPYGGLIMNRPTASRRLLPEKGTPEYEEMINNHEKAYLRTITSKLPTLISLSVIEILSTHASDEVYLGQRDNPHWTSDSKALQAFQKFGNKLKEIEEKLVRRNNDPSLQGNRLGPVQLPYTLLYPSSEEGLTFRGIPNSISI
The series is described as follows: In vitro soybean lipoxygenase inhibition, linoleate as substrate. It counts as biochemical. As to conditions: sodium linoleate 100 μM; after 7 min of incubation; pH 9.0, 28 °C. On the procedure:
The reaction mixture contained the examined compounds (in absolute ethanol, 1–300 μM), soybean lipoxygenase (in saline, 250 u/mL) and sodium linoleate (100 μM), in Tris–HCl buffer, pH 9.0. The reaction was monitored for 7 min at 28 °C, recording the absorbance at 234 nm. […]

Series [1] can be described thus: Interaction with the stable radical DPPH. As to conditions: DPPH 200 μΜ, after 30 min. As for the experimental part: (§1) The antioxidant activity of compounds was estimated by the inhibition of rat hepatic microsomal membrane lipid peroxidation, induced by Fe^+2/ascorbate, estimated as 2-thiobarbituric acid (TBA) reactive material, and by their interaction with the N-centred 1,1-diphenyl-2-picrylhydrazyl (DPPH) stable free radical. […] The percent interaction with DPPH and the IC50 values of compounds 7–9 on rat hepatic microsomal membrane lipid peroxidation, after 45 min of incubation is shown in Table 4.
Compounds (in absolute ethanol, final concentrations 25–200 μM) were added to an ethanolic solution of DPPH (final concentration 200 μM) at room temperature (22 ± 2 °C). Absorbance (517 nm) was recorded after 30 min.
(The DPPH test is a chemical assay of radical scavenging.)

Series [2] deals with rat hepatic microsomal membrane lipid peroxidation. The series is described as follows: Fe2+/ascorbate induced lipid peroxidation, TBA reactive material. As to conditions: for IC50: after 45 min of incubation, read-out: Inhibition of Lipid Peroxidation IC50. It counts as biochemical. As for the experimental part:
as §1
The peroxidation of heat-inactivated (90°, 90 s) rat liver microsomal fraction was induced by ascorbic acid (0.2 mM) and ferrous sulphate (10 μΜ). The studied compounds, in dimethylsulfoxide, were added at concentrations 1 μM–1 mM. Aliquots were taken from the incubation mixture (37 °C) for 45 min. Lipid peroxidation was assessed spectrophotometrically (535/600 nm) as 2-thiobarbituric acid reactive material. All compounds and solvents were found not to interfere with the assay.

Series [3] has as its system carrageenan-induced rat paw oedema. The series can be described thus: Carrageenan-induced rat paw oedema. Format: in vivo, Wistar rats. The conditions noted are these: 0.15 mmol/kg i.p., oedema after 3.5 h, vs carrageenan-only controls; for inhibition in vivo at 150 µmol/kg: Rattus norvegicus, ip, read-out: % Oedema Reduction. On the procedure: The carrageenan-induced paw oedema is a well-known and widely used model of acute inflammation. The response to carrageenan inflammation may be divided into three phases. In the first phase (after 1.5 h), histamine and serotonin are released, the second phase (1.5–2.5 h after carrageenan administration) is mediated by kinins, whereas, in the third phase, more than two hours post administration, neutrophil infiltration, prostaglandin production and release of pro-inflammatory cytokines are involved. In this work, oedema was measured 3.5 h post injection.
κ-Carrageenan and lipoxygenase type I-B from soybean were purchased from Sigma (St. Louis, MO, U.S.A.).
The tested compounds (in water with a few drops of Tween 80) were given i.p. (0.15 mmol/kg) to rats, just after the i.d. injection of 0.1 mL of an aqueous carrageenan solution (1% w/v) in the hind paw of rats. The produced oedema, after 3.5 h, was estimated as paw weight increase.

For the next series, the system named is hyperlipidaemic rats. The series can be described thus: Triton WR1339 (tyloxapol) induced hyperlipidaemia in rats. The conditions noted are these: Rattus norvegicus, ip, 24 h, 150 μmol/kg i.p., tyloxapol 200 mg/kg i.p., plasma after 24 h. Format: in vivo, Wistar rats. From the text: The pleiotropic effects of statins, used as hypolipidaemic drugs, include antioxidant ability and direct increase of eNOS activity, in addition to inhibition of 3-hydroxy-3-methylglutaryl coenzyme A (HMG-CoA) reductase. […] The systemic administration of Triton-WR1339 (tyloxapol) to rats induces a biphasic elevation of plasma cholesterol, atherogenic VLDL cholesterol and LDL cholesterol, as well as triglyceride levels. […] Agents shown to be active in phase I are considered to interfere with cholesterol biosynthesis.
κ-Carrageenan and lipoxygenase type I-B from soybean were purchased from Sigma (St. Louis, MO, U.S.A.). For the in vivo experiments, Wistar rats (180–220 g, 3–4 months old) were kept in the Centre of the School of Veterinary Medicine (EL54 BIO42), Aristotelian University of Thessaloniki, which is registered by the official state veterinary authorities (presidential degree 56/2013, in harmonization with the European Directive 2010/63/EEC). The experimental protocols were approved by the Animal Ethics Committee of the Prefecture of Central Macedonia (no. 270079/2500).
Hyperlipidaemia was induced by the i.p. administration of Triton WR 1339 (200 mg/kg) to rats. […] Blood was taken from the aorta after 24 h, for the determination of plasma total cholesterol, LDL-cholesterol and triglyceride concentrations, using commercial kits.

Series [4] in a line: In vitro nitrogen monoxide release (Griess reagent). The conditions noted are these: DMSO/water 7/3, overnight, cadmium. As for the experimental part:
Due to their poor aqueous solubility, compounds 1, 3-7 and 9 were dissolved in 7/3 (v/v) mixture of DMSO/water at various concentrations and incubated overnight at room temperature in the presence of cadmium. S-nitroso-N-acetylpenicillamine (SNAP) was dissolved either in DMSO/water 7/3 or in water and treated as above.
Aliquots were taken from each sample and added to an equal volume of N-naphthylaminoethylamine (0.2%) and sulfanilamide (2%) solution in 3 N hydrochloric acid (Griess reagent). Appropriate sodium nitrite solutions in the same DMSO/water mixture were used for the construction of the standard curve and values were identical to those obtained with aqueous solutions. Nitric oxide release was estimated spectrophotometrically (540 nm).
(The Griess reaction detects nitrite, a stable product of nitric oxide.)

Where [5] appears, read: read-out: % Reduction LDL-C (LDL cholesterol).
Setting [6] is: read-out: % Reduction TC (total cholesterol).
Where [7] appears, read: read-out: % Reduction TG (triglycerides).

`CC(C)(C)c1cc(/C=C/C(=O)OCCc2ccc([N+](=O)[O-])cc2)cc(C(C)(C)C)c1O` [Compound 8, (E)-4-Nitrophenethyl 3-(3,5-di-tert-butyl-4-hydroxyphenyl)acrylate]: the melting point lay within 156 to 157 °C. This compound also gave an IC50 against soybean lipoxygenase 1-B of 10.5 µM. Moreover, in series [1] (compound 50 μΜ), the “Percent Interaction with DPPH” value stood at 23%. Further, the “Percent Interaction with DPPH” value in series [1] (compound 100 μΜ) was 57%. For the same compound, the “Percent Interaction with DPPH” value in series [1] (compound 200 μΜ) was determined as 88%. In series [2], the IC50 was determined as 150 µM. In addition, in series [3], the “% Oedema Reduction” value was 51 ** % and the inhibition in vivo at 150 µmol/kg is 51%.
For the compound `Cc1c(C)c2c(c(C)c1O)CCC(C)(C(=O)OCCO[N+](=O)[O-])O2` (racemic) [Compound 9, (±)-2-(Nitrooxy)ethyl 6-hydroxy-2,5,7,8-tetramethylchroman-2-carboxylate], the melting point was in the range of 95 to 97 °C. For the same compound, the inhibition in vivo at 150 µmol/kg with hyperlipidaemic rats (setting [5]) amounted to 65%. Besides, the inhibition in vivo at 150 µmol/kg with hyperlipidaemic rats (setting [6]) was determined as 55.4%. In addition, in the series on hyperlipidaemic rats (setting [7]), the inhibition in vivo at 150 µmol/kg was 30%. Also, the “NO Release” value in series [4] (compound 31.25 μM) is 3 μΜ. The “NO Release” value in series [4] (compound 62.5 μM) was 10 μΜ. For the same compound, the “NO Release” value in series [4] (compound 125 μM) is reported as 23 μΜ. Also, the “NO Release” value in series [4] (compound 250 μM) worked out at 49 μΜ. The “NO Release” value in series [4] (compound 500 μM) was 93 μΜ. On soybean lipoxygenase 1-B, this compound returned an IC50 of 120 µM. For the same compound, in series [1] (compound 50 μΜ), the “Percent Interaction with DPPH” value was 55%. Besides, the “Percent Interaction with DPPH” value in series [1] (compound 100 μΜ) is reported as 90%. In series [1] (compound 200 μΜ), the “Percent Interaction with DPPH” value came out at 92%. In series [2], the IC50 was 2.3 µM. For the same compound, the “lag period in time course of lipid peroxidation” value in series [2] (various concentrations, Figure 2) is “about 20 min”. In addition, the inhibition in vivo at 150 µmol/kg in series [3] was 57%.
In the case of `Cc1c(C)c2c(c(C)c1O)CCC(C)(C(=O)O)O2` (centres unmarked) [Trolox, 6-hydroxy-2,5,7,8-tetramethylchroman-2-carboxylic acid, reference compound], the IC50 on soybean lipoxygenase 1-B was more than 300 µM; in series [2], 25 µM. For the same compound, the figures for the “Percent Interaction with DPPH” value in series [1] (compound 50 μΜ), in series [1] (compound 100 μΜ) and in series [1] (compound 200 μΜ) were 38%, 90% and 92%, respectively.
`CC(C)(C)c1cc(/C=C/C(=O)OCCO[N+](=O)[O-])cc(C(C)(C)C)c1O` [Compound 7, (E)-2-(Nitrooxy)ethyl 3-(3,5-di-tert-butyl-4-hydroxyphenyl)acrylate] came in with a melting point of 80 °C. Besides, the inhibition in vivo at 150 µmol/kg with hyperlipidaemic rats (setting [5]) stood at 60.6%. Further, the inhibition in vivo at 150 µmol/kg in the series with hyperlipidaemic rats (setting [6]) was 66%. Further, in the series on hyperlipidaemic rats (setting [7]), the inhibition in vivo at 150 µmol/kg came out at 45.7%. The “NO Release” value in series [4] (compound 31.25 μM) is recorded as 2 μΜ. The “NO Release” value in series [4] (compound 62.5 μM) is listed as 6.5 μΜ. In series [4] (compound 125 μM), the “NO Release” value is 17 μΜ. In addition, the “NO Release” value in series [4] (compound 250 μM) is on record as 38 μΜ. Further, the “NO Release” value in series [4] (compound 500 μM) worked out at 77 μΜ. Besides, at soybean lipoxygenase 1-B, it took 44 µM to reach half-maximal inhibition (IC50). Further, in series [1] (compound 50 μΜ), the “Percent Interaction with DPPH” value was 21%. The “Percent Interaction with DPPH” value in series [1] (compound 100 μΜ) is on record as 49%. Moreover, the “Percent Interaction with DPPH” value in series [1] (compound 200 μΜ) amounted to 87%. Besides, the half-inhibitory concentration (IC50) in series [2] turned out to be 41 µM. Moreover, in series [3], the “% Oedema Reduction” value is 55 ** % and the inhibition in vivo at 150 µmol/kg was 55%.
For the compound `COc1ccc2c(c1)c(CC(=O)OCCO[N+](=O)[O-])c(C)n2C(=O)c1ccc(Cl)cc1` [Compound 3, 2-(Nitrooxy)ethyl 2-(1-(4-chlorobenzoyl)-5-methoxy-2-methyl-1H-indol-3-yl)acetate], the melting point was in the range of 83 to 84 °C. Moreover, in the series with hyperlipidaemic rats (setting [5]), the inhibition in vivo at 150 µmol/kg came to 62.3%. Also, the inhibition in vivo at 150 µmol/kg in the series with hyperlipidaemic rats (setting [6]) came out at 71.7%. Further, in the series on hyperlipidaemic rats (setting [7]), the inhibition in vivo at 150 µmol/kg was determined as 31.8%. For the same compound, the “NO Release” value in series [4] (compound 31.25 μM) turned out to be 5 μΜ. In addition, the “NO Release” value in series [4] (compound 62.5 μM) was determined as 13 μΜ. Also, the “NO Release” value in series [4] (compound 125 μM) turned out to be 28 μΜ. The “NO Release” value in series [4] (compound 250 μM) was determined as 58 μΜ. Moreover, the “NO Release” value in series [4] (compound 500 μM) was 102 μΜ. At soybean lipoxygenase 1-B, half-maximal inhibition (IC50) required 107 µM. Also, the inhibition in vivo at 150 µmol/kg in series [3] came out at 29%.
